# Laboratory results from patent publication US8012929B2, “Peptides directed for diagnosis and treatment of amyloid-associated diseases” (Tel Aviv University Future Technology Development L.P., priority 2002, dated 2011).
# Where two headings read alike, the source gives them in different places. Square brackets hold non-standard residues; d marks the D form. Peptide text beside a SMILES is read from it. Aib = CC(C)(N)C(=O)O
# Legend:
# CYP450 2C9 = CYP450 2C9 (Homo sapiens, UniProt P11712); assay: Human CYP450 screen 2C9; type: in vitro ADME
# Chain of CYP450 2C9 (P11712 whole entry): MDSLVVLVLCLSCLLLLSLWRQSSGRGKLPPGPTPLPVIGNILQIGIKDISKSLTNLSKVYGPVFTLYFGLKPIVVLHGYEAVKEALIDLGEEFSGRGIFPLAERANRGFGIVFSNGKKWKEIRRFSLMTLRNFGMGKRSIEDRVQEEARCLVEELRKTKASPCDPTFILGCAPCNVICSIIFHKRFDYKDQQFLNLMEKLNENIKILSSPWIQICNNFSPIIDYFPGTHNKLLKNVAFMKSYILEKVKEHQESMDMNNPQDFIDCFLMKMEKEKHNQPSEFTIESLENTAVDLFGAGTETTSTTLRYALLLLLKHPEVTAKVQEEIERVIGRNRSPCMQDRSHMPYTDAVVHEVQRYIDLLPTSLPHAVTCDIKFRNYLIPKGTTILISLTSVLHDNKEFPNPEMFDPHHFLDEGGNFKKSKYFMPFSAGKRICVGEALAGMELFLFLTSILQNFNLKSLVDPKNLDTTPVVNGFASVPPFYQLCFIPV
# Description: (§1) For the metabolic stability assay, Human cytochrom P450 (CYP450) screens were used. The cytochrom P450 isoenzymes, which are located in the intestines, liver, lung, kidney and brain, are involved in important drug interactions. Drug metabolism occurs in two phases—Phase I involves oxidation, reduction, and hydrolysis. Phase II involves synthesis and conjugation. The CYP 450 isoenzymes are involved in Phase I oxidative reactions. CYP 450 interactions generally result from one of two processes—Induction, where a substance stimulates the synthesis of the enzyme and metabolic capacity is increased, and inhibition, where competitive binding at an enzyme's binding site(s) occurs. A drug with a high affinity for an enzyme will slow the metabolism of any low affinity drug. CYP 3A3/4 is the most abundant CYP 450 isoenzyme in humans and is responsible for the metabolism of the widest range of drugs/substances. (CYP450) screens used were 1A2, 2C9, 2C19, 2D6 and 3A4.
# PC-12 cells = assay: Inhibition of β-amyloid cytotoxicity in PC-12 cells (MTT); type: cell-based; conditions: 5 μM Aβ1-40, 6.5 μM-150 μM D-Trp-Aib, 24 hr, pre-incubated 21 days
# Method: Prior to incubation with the PC-12 cells, 5× concentrated Aβ1-40 (25 μM) and 5× concentrated D-Trp-Aib were pre-incubated for 21 days.
# Cell viability—The MTT-assay is a very sensitive assay measuring the mitochondrial dehydrogenase activity in viable cells. Following incubation, MTT reduction assay was undertaken according to the method described by Mosmann, [J. Immunol. Meth, 55-63 (1983)], cell viability was calculated by subtracting Aβ1-40 samples absorbance from non-Aβ1-40 controls containing the same D-Trp-Aib concentrations.
# [1] = mouse, in vivo
# Method: Animals were treated following a 4 hour fast, with water ad libitum, and fed 2 hours after administration. Thereafter, animals were sacrificed at different time intervals (5 minutes-8 hours; 3 animals in each group, at every time interval were sacrificed by sodium pentobarbital anesthesia followed by exanguination) and blood (plasma), brain, liver, kidney and pancreas were collected and later analyzed. Plasma and brain tissue samples were analyzed by high-performance liquid chromatography with tandem mass spectrometry (LC-MS/MS).
# In case of brain tissue, only AUC0-4 was calculated. All parameters were calculated using the software PK solutions Version 2.0 for Noncompartmental Pharmacokinetics Data analysis (Summit Research Services, Montrose, Colo.).
# CYP450 1A2 = molecular target: T1, CYP450 1A2 (Homo sapiens, UniProt P05177); assay: Human CYP450 screen 1A2; type: in vitro ADME
# T1 sequence (P05177 1-516): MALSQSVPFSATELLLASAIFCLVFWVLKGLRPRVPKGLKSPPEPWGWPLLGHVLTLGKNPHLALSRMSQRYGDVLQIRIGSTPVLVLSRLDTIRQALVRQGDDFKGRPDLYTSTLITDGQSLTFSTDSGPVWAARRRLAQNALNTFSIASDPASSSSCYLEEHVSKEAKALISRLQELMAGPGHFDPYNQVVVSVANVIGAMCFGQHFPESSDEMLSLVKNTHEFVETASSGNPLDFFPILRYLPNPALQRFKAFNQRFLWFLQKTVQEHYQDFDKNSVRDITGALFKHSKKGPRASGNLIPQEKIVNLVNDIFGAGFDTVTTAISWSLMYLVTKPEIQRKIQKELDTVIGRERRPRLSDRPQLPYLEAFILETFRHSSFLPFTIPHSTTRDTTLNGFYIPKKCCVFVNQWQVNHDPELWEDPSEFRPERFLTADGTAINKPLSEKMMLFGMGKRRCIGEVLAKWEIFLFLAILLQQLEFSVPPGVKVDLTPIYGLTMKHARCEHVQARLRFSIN
# Description: as §1
# [2] = molecular target: T2, β-amyloid1-42 globulomers (Homo sapiens, UniProt P05067); assay: β-amyloid1-42 globulomer formation (6E10 immunoblot, densitometry); type: biochemical; conditions: 0.13 mM β-amyloid, 1:5 to 1:20 molar ratio, 18 hours at 37° C.
# T2 construct: β-amyloid monomers (0.4 mM) were produced by dissolving the 1-42 peptide in 1,1,1,3,3,3-hexafluoroisopropanol; purchased Bachem (Bubendorf Switzerland)
# T2 sequence (P05067 672-713): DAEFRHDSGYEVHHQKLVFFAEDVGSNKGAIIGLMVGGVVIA
# Description: […] Solutions were then separated using a 15% Tris-Tricine gel, and transferred to a PVDF membrane, which was screened with a mouse anti β-amyloid monoclonal antibody (6E10; Signet, Dedham, Mass.)
# [3] = Serum stability, human serum (HPLC); type: in vitro ADME; conditions: 37° C., 2 and 5 hours
# Description: D-Trp-Aib serum stability—Regardless of administration route, all drugs penetrate and distribute in the body via the blood system. This milieu is based not only on cells and buffering compounds, but also on proteins, carbohydrates, lipid-protein micelles, etc. Serum proteins mainly contain carrier proteins, such as albumin, but also contain many enzymes that might treat the drug as a substrate. Thus, the susceptibility of any drug entering this environment should be evaluated. The stability of D-Trp-Aib spiked into serum was evaluated by analysis of intact sample concentrations at different time points. D-Trp-Aib (250 μg/ml PBS) was incubated with mouse (Harlan Biotech, Israel) or human (obtained from Sheba medical center, Tel Hashomer, Israel) sera or PBS (1:1, 37° C.), and aliquots were analyzed by HPLC analysis at times 0, 2 and 5 hrs. The reaction was stopped and precipitation was effected by the addition of acetonitrile (Baker, Phillipsburg N.J.) and 10% TCA. Following centrifugation (10,000 g, 5 min), Supernatant was transferred to HPLC analysis. Mean amounts of D-Trp-Aib (μg)±s.e.m. were calculated by an internal calibration curve. […]
# [4] = inhaled or intranasal, 20 mg/kg
smiles,measurement,setting,value
CC(C)(NC(=O)[C@H](N)Cc1c[nH]c2ccccc12)C(=O)O [D-Trp-Aib] (H-[dW]-[Aib]-OH),activity in CYP450 screen,CYP450 2C9,None of the results met significance criteria
same,inhibition of β-amyloid cytotoxicity (MTT viability),PC-12 cells,highly effective in inhibiting the cytotoxicity of β-amyloid
same,detection in brain tissue (transport through the blood-brain barrier),[1],detected in all the assayed brain tissue samples
same,"exposure of the brain, intranasal compared to oral administration",[1],higher exposure of the brain
same,Cl (area)/kg,[1]; [4],19.1947 mL/min/kg
same,Vd (area)/kg,[1]; [4],2.14474 L/kg
same,AUC (0-t) (obs area),"[1]; iv, 50 mg/kg",2173.55
same,AUCextra,"[1]; iv, 50 mg/kg",0.11%
same,earliest detection post-dosing (rapidly absorbed),[1]; po,15 min
same,AUC (0-t) (obs area),"[1]; po, 50 mg/kg",453.91
same,AUCextra,"[1]; po, 50 mg/kg",0.24%
same,Cl (area)/kg,"[1]; po, 50 mg/kg",20.4857 mL/min/kg
same,Vd (area)/kg,"[1]; po, 50 mg/kg",1.90581 L/kg
same,activity in CYP450 screen,CYP450 1A2,None of the results met significance criteria
same,amount of globulomers (densitometer analysis),[2],about 45 % of the control
same,D-Trp-Aib concentration after incubation in serum,[3],No decrease
